Results published in patent US9980943B2, “Methods of treating muscular dystrophy” (BOARD OF REGENTS OF THE NEVADA SYSTEM OF HIGHER EDUCATION, …, priority 2013, dated 2018).
Like-named read-outs stand apart in the source and are kept apart here.

Tested on: α7 integrin (LacZ reporter in α7LacZ+/− myoblasts)
Experiment: qHTS of the LOPAC library and MLSMR (online screen, α7LacZ+/− myoblasts)
Conditions: for activation at 0.307 µM / activation at 1.53 µM / activation at 7.66 µM / activation at 38.3 µM / Emax / EC50: Mus musculus, Myoblast; for activation at 0.307 µM: read-out: Activity at 0.307 uM [%] **; for activation at 1.53 µM: read-out: Activity at 1.530 uM [%] **; for activation at 7.66 µM: read-out: Activity at 7.660 uM [%] **; for activation at 38.3 µM: read-out: Activity at 38.30uM [%] **; for EC50: read-out: Fit LogAC50 (converted); for Score: Table 8 Compound data
[1] = 48 h, read-out: Fit Infinite Activity [%]

Structure (SMILES)	activation at 0.307 µM (48 h) [%]	activation at 1.53 µM (48 h) [%]	activation at 7.66 µM (48 h) [%]	activation at 38.3 µM (48 h) [%]	Emax [1] [%]	Emax (read-out: Max Response [%]) [%]	EC50 [µM]	Score	Curve Description
COc1ccc(-c2c[nH]nc2-c2ccc(OC)cc2)cc1 [Compound 106]	-0.495	9.02	40.4	70.1	79.2	70.1			
Fc1ccc(-c2ccnn2-c2ccccc2)cc1 [Compound 107]	-17.2	-3.24	46	73.3	76.4	73.3	4.47		
O=C(Nc1cc(Br)ccc1O)C1CC(c2ccccc2Cl)=NO1 (stereo not shown) [Compound 108]	2.03	3.14	15.3	141	142	141	12.6		
COc1ccc2oc(C[S+]([O-])c3ccccc3)c(C(=O)O)c2c1 (stereo not shown) [Compound 109]	5.2	10.1	20.9	174	174	174	12.6		
Oc1c(Br)cc(Br)cc1CNc1cccc2cccnc12 [Compound 110]	-18.9	-17.9	0	161	163	161	12.6	43	
CCCCS(=O)(=O)N1CCCC(C(=O)NCCc2ccccc2)C1 (stereo not shown) [Compound 111]	4.12	15.4	54.6	89.9	101	89.9	7.08		
O=[N+]([O-])c1ccc(Cl)cc1N/N=C/c1ccncc1 [Compound 112]	0	1.53	54	73.8	74	73.8	5.62	43	
NC(=O)c1cccnc1Oc1ccc(Cl)cc1Cl [Compound 113]	-4.94	-7.73	23.5	105	106	105	10		
Cc1ccc(NC(=O)C2CCCCC2C(=O)O)cc1C (stereo not shown) [Compound 114]	-6.72	-1.25	17.2	135	135	135	11.2		
CCOc1ccc2oc(C(=O)OCC(=O)NC(=O)NC)c(C)c2c1 [Compound 115]	-3.94	0	40.2	77.6	80.7	77.6	7.08		
CN(C)S(=O)(=O)c1ccc(C(=O)Nc2nc3ccccc3[nH]2)cc1 [Compound 116]	-9.1	-3.94	36.7	84.9	94.8	84.9	8.91		
NC1=Nc2cccc3cccc1c23 [Compound 117]	0	5.07	43.6	82.2	88.8	82.2	7.94		
C/N=c1\scc(-c2ccc(OC)cc2)n1/N=C(\C)c1cccnc1 [Compound 118]	-8.12	2.29	48.7	73.6	74.9	73.6	5.01		
O=C(COC(=O)Cn1cnc2ccccc21)Nc1cccc([N+](=O)[O-])c1 [Compound 119]	-17.1	-14.7	0.628	112	112	112	11.2		
Cc1ccc(CNc2ncnc(N)c2[N+](=O)[O-])cc1 [Compound 120]	17.8	33.8	63.4	97.4	127	97.4	10		
CN(C)/C=N/c1nccc(-c2cccs2)n1 [Compound 121]	6.86	8.46	45	92.6	97.8	92.6	8.91		
Cc1cc(N2CCOCC2)nc2ccc(N/C(S)=N/Cc3ccc4c(c3)OCO4)cc12 [Compound 122]	2.5	11.5	54	107	128	107	10		
COCCN1C=C(C(=O)OC)C(c2ccccc2Cl)C(C(=O)OC)=C1 [Compound 123]	5.12	12.1	45.1	85.5	96.9	85.5			

Structure (SMILES)	activation at 0.307 µM (48 h) [%]	activation at 1.53 µM (48 h) [%]	activation at 7.66 µM (48 h) [%]	activation at 38.3 µM (48 h) [%]	Emax [1] [%]	Emax (read-out: Max Response [%]) [%]	EC50 [µM]	Score	Curve Description
O=C(NCCCn1ccnc1)/C(=C/c1cccs1)NC(=O)c1ccco1 [Compound 124]	-19.2	-7.39	35.5	85.9	103	85.9			
N=C(NOC(=O)COc1cc(Cl)c(Cl)cc1Cl)c1ccncc1 [Compound 125]	0	9.26	50.4	108	134	108			
Cc1ccc(-c2csc(Nc3ccc(C(=O)O)cc3)[n+]2Cc2ccccc2)cc1 [Compound 126]	5.18	19	58.1	102	125	102			
Cc1cc(-c2ccccc2)n2nc(N)nc2n1 [Compound 127]	-20	-16.1	-2.95	151	152	151			
O=C(N/N=C/c1cn[nH]c1-c1ccc(F)cc1)c1ccncc1 [Compound 128]	17.3	12.6	22.6	152	154	152			
CC(/C=C(\O)c1ccccc1)=N\c1ccc(Br)c(Cl)c1 [Compound 130]	7.18	9.18	26.1	127	128	127			
Cc1ccc(NC(=O)COc2ccccc2CNC(C)(C)CC(C)(C)C)cc1 [Compound 131]	10.7	7.12	16.2	182	184	182			
Cc1nc2c([nH]1)OC(N)=C(C#N)C21CCN(Cc2ccccc2)CC1 [Compound 132]	11.1	13.8	23	133	133	133			Partial
O=C(CSc1nnc(C2CC2)n1C1CC1)c1cccs1 [Compound 133]	-26	-28.4	5.99	70.2	73.1	70.2	10		
CSc1ncccc1C(=O)OCC(=O)c1cc(C)n(C)c1C [Compound 134]	-21	-23.9	-0.0686	72.9	72.9	72.9	10		
CCc1c(C2(O)CCCCC2)[nH]c2ncccc12 [Compound 135]	-28.5	-29.4	-11.2	62	61.8	62	10		
O=C(Nc1ccc(S(=O)(=O)Nc2nccs2)cc1)c1ccccc1OC(F)F [Compound 137]	-19.2	-19.4	-1.67	61.8	61.7	61.8	10		
O=C1CCc2cc(S(=O)(=O)Nc3ccc(C(F)(F)F)cc3)cc3c2N1CC3 [Compound 138]	-26.1	-19.1	23.6	85.8	108	85.8			
COc1ccccc1C(=O)NCC(=O)/N=N/c1c(O)n(C(C)C)c2ccccc12 [Compound 139]	15.2	14.6	25	81.7	82	81.7			
Cn1ccc(C(=O)Nc2cccnc2Cl)n1 [Compound 140]	-2.76	-4.96	22.8	76	77.9	76	10		
COC(=O)c1ccc(C2C(C(=O)c3cc4ccccc4o3)=C(O)C(=O)N2CCN2CCOCC2)cc1 (stereo not shown) [Compound 141]	-17.2	-18.3	2.6	82.7	82.8	82.7	10		
COc1cc(NC(=O)C2C3C=CC(C3)C2C(=O)O)ccc1NC(=O)c1ccccc1 (stereo not shown) [Compound 142]	-17.1	-18.7	16.8	68.9	71.2	68.9			
